Measurements: patent US20240390526A1, “NEAR-INFRARED FLUORESCENT DYE-LOADED POLYMER MICROSPHERES FOR LABELLING LESIONS, AND FORMULATION THEREOF” (National Cancer Center, priority 2022, published 2024)

Experiment: Fluorescence spectrum / intensity of dye solutions, dye complexes and microsphere dispersions (multi-function microplate reader, λex=730 nm)
Type: physicochemical
Conditions: aqueous solution
Description: 0.5 mg of indocyanine green (Dianogreen Injection) (ICG, Jeil Pharmaceutical Co., Ltd.) as a near-infrared fluorescent dye was dissolved in 1 mL of distilled water, and then diluted with distilled water to prepare an indocyanine green solution at a concentration of 30 μM. For the indocyanine green/human serum albumin (HSA, SK Plasma) complex for comparison of fluorescence signals with the indocyanine green solution, 0.5 mg of indocyanine green powder was dissolved in a mixed solution of 0.214 mL of human serum albumin solution (20% concentration) and 0.786 mL of distilled water, and then diluted with distilled water to prepare an indocyanine green/human serum albumin complex (ICG-HSA) at a concentration of 30 μM. To compare fluorescence spectra, 200 μL of each prepared solution was aliquoted and placed in a 96-well plate, and the fluorescence spectrum (λex=730 nm) was measured using a multi-function microplate reader (SPARK, Tecan Trading AG, Zurich, Switzerland).
(§1) To compare fluorescence signals of the prepared the microspheres and the indocyanine green/human serum albumin complex, the same concentration of indocyanxhine green complex solution and dispersion of microparticles were prepared. […] Using the information on the content of indocyanine green in PLGA microspheres evaluated by the quantification, a dispersion was prepared by adding indocyanine green to 0.3 mL of distilled water so that the concentration was 30 μM. To compare fluorescence spectra, 200 μL of each of the prepared solution and dispersion was aliquoted and placed in a 96-well plate, and the fluorescence spectrum (λex=730 nm) was measured using a multi-function microplate reader (SPARK, Tecan Trading AG, Zurich, Switzerland).
as §1, with “To compare the fluorescence signals” for “To compare fluorescence signals”, “the prepared microspheres and” for “the prepared the microspheres and”, “multi-function microplate reader. Fluorescence images were analyzed using fluorescence imaging equipment (IVIS Lumina XR, Xenogen Corporation-Caliper, CA, USA) after putting 300μl of the same solution into a microtube (λex=780/20 nm, λem=845/40 nm). […]” for “multi-function microplate reader (SPARK, Tecan Trading AG, Zurich, Switzerland).”

emission peak | Compound
806 nm | CC1(C)C(/C=C/C2=C(Oc3ccc(S(=O)(=O)O)cc3)C(=C/C=C3/N(CCCCS(=O)(=O)O)c4ccc(S(=O)(=O)[O-])cc4C3(C)C)/CCC2)=[N+](CCCCCC(=O)O)c2ccc(S(=O)(=O)O)cc21 [IRDye 800CW, IRDye® 800CW carboxylate]
812 nm | Flamma774 carboxylic acid
780 nm | C[N+]1=C(C=CC2=CC(=CC=C3N(CCCCCC(=O)O)c4ccc(S(=O)(=O)[O-])cc4C3(C)C)CCC2)C(C)(C)c2cc(S(=O)(=O)[O-])ccc21.[K+] [Cy7, sulfo-cyanine7 carboxylic acid]
810 nm | C[N+]1=C(C=CC2=CC(=CC=C3N(CCCCCC(=O)[O-])c4ccc5c(S(=O)(=O)[O-])cc(S(=O)(=O)[O-])cc5c4C3(C)C)CCC2)C(C)(C)c2c1ccc1c(S(=O)(=O)O)cc(S(=O)(=O)[O-])cc21.[K+].[K+].[K+] [Cy7.5, sulfo-cyanine7.5 carboxylic acid]
